Data published in patent US20040063843A1, “Coating solutions” (Honeywell International, Inc., priority 2002, published 2004).

Experiments:
[1] = Surface tension measurement, Nouy ring method; format: physicochemical; conditions: 20 ml aliquot, Kruss Model K 10 ST; liquid carrier tetrafluoropropanol, no coating moiety
Procedure: Samples of coating solution (Examples 8, 9, 10, and 11) were prepared by blending in a vessel a measured volume of a liquid carrier (tetrafluoropropanol) and a fluorocarbon surface tension-reducing agent (1,1,1,3,3-pentafluoropropane, HFC245fa) to give the Vol. % compositions indicated in Table 3, below.
Surface tension was measured using the Nouy ring method and a Kruss Instrument Model K 10 ST.
In a typical determination, a 20 ml aliquot of the liquid to be tested was placed in the instrument and the surface tension was measured by the published procedure described above. Measurements were carried out for neat tetrafluropropanol (a liquid carrier, Table 3, Comparative Example #3), neat 1,1,1,3,3-pentafluropropane (HFC245fa, as a fluorocarbon surface tension-reducing agent, Table 3, Example # 11), and coating solution formulations (sans a coating moiety) comprising mixtures of tetrafluropropanol with 25 Vol. %, 50 Vol. %, and 75 Vol. % 1,1,1,3,3-pentafluropropane (Table 3, Examples 8, 9 and 10 respectively).

[2] = format: physicochemical
Procedure: Coating solvent was prepared by blending in a vessel a measured volume of a liquid carrier (tetrafluoropropanol) and as a surface tension-reducing agent 1,1,1,3,3-pentafluoropropane (HFC245fa) to give a solvent having the constituent volumetric ratios shown in Table I, below.
Solubility was determined by adding dye powder slowly to a weighed 100 ml aliquot of the coating solvent in a vessel. The solvent was stirred to dissolve the dye. When no more dye would dissolve, the dye addition was stopped and the solvent reweighed to determine the amount of dye that had been dissolved in the solvent.

Surface Tension [1] [mN/m]	Dye A Solubility [2] [g/100 ml]	Dye B Solubility [2] [g/100 ml]	Compound
18			FC(F)CC(F)(F)F [Example # 11, 1,1,1,3,3-pentafluropropane]
	10.7	11.3	Tetrafluoropropanol [compound 1]
